Measurements taken from patent publication US20220363662A1, “COMPOUNDS AS LXR AGONISTS” (Integral Biosciences Privated Limited, priority 2021, published 2022).

Target: T1, LXR beta (Homo sapiens, UniProt P55055)
T1 construct: 5 μL of 4×LXR beta-LBD was added to each well (final concentration 5 nM); purchased Thermofisher PV4658
T1 sequence (P55055 222-460 limits assumed): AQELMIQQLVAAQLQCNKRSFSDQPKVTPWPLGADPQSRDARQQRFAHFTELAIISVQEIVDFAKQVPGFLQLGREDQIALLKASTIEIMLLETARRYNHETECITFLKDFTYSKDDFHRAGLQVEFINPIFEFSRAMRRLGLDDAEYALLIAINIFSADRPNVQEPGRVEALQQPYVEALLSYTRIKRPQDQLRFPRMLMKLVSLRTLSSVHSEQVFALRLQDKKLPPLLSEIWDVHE
Test: LXR beta agonist assay (Lanthascreen TR-FRET)
Assay type: biochemical
Details: LXR beta-LBD 5 nM, read-out: LXR-β EC50
Procedure: EC50 values of compounds against LXR beta were determined at Integral BioSciences (India) using Lanthascreen TR-FRET (Thermofisher, Cat #PV4658). Assay was performed in a 20 μL final volume in a Black 384-well plate (Corning, Cat #4511). Dose response curve for the compounds were prepared in duplicates with starting concentration at 30 μM and a three-fold titration was performed. The reaction buffer consisted of TR-FRET Coregulator Buffer G. To the compound dilution, 5 μL of 4×LXR beta-LBD was added to each well (final concentration 5 nM). An equal volume (5 μL) containing 4×Fl-D22/Tb-anti GST antibody (final concentration 100 nM/10 nM) was added to initiate the enzyme reaction and the reaction was incubated for 60 min at 22° C. after which the plates were read using BioTek Plate reader for TR-FRET every hour up to 4 hours.
Analysis was done using the standard curve by non-linear regression, variable slope inhibitor curve fits (Graph-Pad Prism) and EC50's of compounds were determined wherever possible.

How did the EC50 turn out when `COc1cccc(C2(C(=O)N3CCC(N4CC(Nc5ccc(C(=O)N(C)C)c(Cl)c5)C4)CC3)CCCC2)c1` [Compound 1.67, 2-chloro-4-(1-(1-(1-(3-methoxyphenyl)cyclopentanecarbonyl)piperidin-4-yl)azetidin-3-ylamino)-N,N-dimethylbenzamide] was run?
Its EC50 is 0.995 µM.

For `CN(C)C(=O)c1ccc(-c2nnc(C3=CCN(C(=O)C(O)(c4ccccc4)C(F)(F)F)CC3)s2)cc1Cl` (stereo not drawn) [Compound 1.68, 2-chloro-N,N-dimethyl-4-(5-(1-(3,3,3-trifluoro-2-hydroxy-2-phenylpropanoyl)-1,2,3,6-tetrahydropyridin-4-yl)-1,3,4-thiadiazol-2-yl)benzamide], which EC50 is on record?
Its EC50 is 4.58 µM.

For `CN(C)C(=O)c1ccc(NC2CN(C3CCN(C(=O)C45CC(C4)C5)CC3)C2)cc1Cl` [Compound 1.69, 4-(1-(1-(bicyclo[1.1.1]pentane-1-carbonyl)piperidin-4-yl)azetidin-3-ylamino)-2-chloro-N,N-dimethylbenzamide], which EC50 is on record?
The EC50 was 3.79 µM.

How did the EC50 turn out when `CN(C)C(=O)c1ccc(-c2nnc(N3CCN(S(=O)(=O)c4ccccc4Cl)CC3)s2)cc1F` [Compound 1.70, 4-(5-(4-(2-chlorophenylsulfonyl)piperazin-1-yl)-1,3,4-thiadiazol-2-yl)-2-fluoro-N,N-dimethylbenzamide] was run?
Its EC50 is 9.77 µM.

How did the EC50 turn out when `CN(C)C(=O)c1ccc(C2CCN(C3CC4(C3)CN(C(=O)C(O)(c3ccccc3)C(F)(F)F)C4)CC2)cc1Cl` (stereo not drawn) [Compound 1.80, 2-chloro-N,N-dimethyl-4-(1-(2-(3,3,3-trifluoro-2-hydroxy-2-phenylpropanoyl)-2-azaspiro[3.3]heptan-6-yl)piperidin-4-yl)benzamide] was run?
The EC50 was 4.33 µM.

For `CN(C)C(=O)c1ccc(NC2CN(C3CC4(C3)CN(C(=O)[C@](O)(c3ccccc3)C(F)(F)F)C4)C2)cc1Cl` [Compound 1.81, 2-chloro-N,N-dimethyl-4-(1-(2-((R)-3,3,3-trifluoro-2-hydroxy-2-phenylpropanoyl)-2-azaspiro[3.3]heptan-6-yl)azetidin-3-ylamino)benzamide], which EC50 is on record?
The EC50 was 4.22 µM.

How did the EC50 turn out when `CC1CN(S(=O)(=O)c2ccccc2Cl)CCN1c1nnc(-c2ccc(C(=O)N(C)C)c(F)c2)s1` (stereo not drawn) [Compound 1.82, 4-(5-(4-(2-chlorophenylsulfonyl)-2-methylpiperazin-1-yl)-1,3,4-thiadiazol-2-yl)-2-fluoro-N,N-dimethylbenzamide] was run?
Its EC50 is 9.02 µM.

For `CC1CN(c2nnc(-c3ccc(C(=O)N(C)C)c(Cl)c3)s2)CCN1S(=O)(=O)c1ccccc1Cl` (stereo not drawn) [Compound 1.83, 2-chloro-4-(5-(4-(2-chlorophenylsulfonyl)-3-methylpiperazin-1-yl)-1,3,4-thiadiazol-2-yl)-N,N-dimethylbenzamide], which EC50 is on record?
Its EC50 is 8.46 µM.

With `CN(C)C(=O)c1ccc(NC2CN(C3CCN(C(=O)C(O)(c4ccccc4)C(F)(F)F)CC3)C2)cc1F` (stereo not drawn) [Compound 1.85, 2-fluoro-N,N-dimethyl-4-((1-(1-(3,3,3-trifluoro-2-hydroxy-2-phenylpropanoyl)piperidin-4-yl)azetidin-3-yl)amino)benzamide] as the molecule, how does the EC50 read?
Its EC50 is over 30 µM.

With `O=C(c1ccc(NC2CN(C3CCN(C(=O)C(O)(c4ccccc4)C(F)(F)F)CC3)C2)cc1Cl)N1CCCC1` (stereo not drawn) [Compound 1.88, 1-(4-(3-(3-chloro-4-(pyrrolidine-1-carbonyl)phenylamino)azetidin-1-yl)piperidin-1-yl)-3,3,3-trifluoro-2-hydroxy-2-phenylpropan-1-one] as the molecule, how does the EC50 read?
The EC50 was over 30 µM.

How did the EC50 turn out when `O=C(c1ccc(NC2CN(C3CCN(C(=O)C(O)(c4ccccc4)C(F)(F)F)CC3)C2)cc1Cl)N1CCCCC1` (stereo not drawn) [Compound 1.89, 1-(4-(3-(3-chloro-4-(piperidine-1-carbonyl)phenylamino)azetidin-1-yl)piperidin-1-yl)-3,3,3-trifluoro-2-hydroxy-2-phenylpropan-1-one] was run?
Its EC50 is over 30 µM.

With `CC1CN(C(=O)c2ccc(NC3CN(C4CCN(C(=O)C(O)(c5ccccc5)C(F)(F)F)CC4)C3)cc2Cl)C1` (stereo not drawn) [Compound 1.94, 1-(4-(3-((3-chloro-4-(3-methylazetidine-1-carbonyl)phenyl)amino)azetidin-1-yl)piperidin-1-yl)-3,3,3-trifluoro-2-hydroxy-2-phenylpropan-1-one] as the molecule, how does the EC50 read?
The EC50 was 6.79 µM.
